“Also recorded” adds a separate entry of the source. Where two headings read alike, the source gives them in different places.

The subject of test [1] is Swiss-Webster (SW) mice. As to conditions: low doses in naïve mice; cited from earlier work.
Test [2] deals with Swiss-Webster (SW) mice. The format is in vivo. The following applies: for effect on low-dose κ-opioid-induced hyperalgesia, compared with CTX-B cotreatment: 10 ng/kg U-50,488H plus ultralow (pg/kg) dose of antagonist.
Test [3] relates to male dental-pain patients. The following applies: cited from earlier work.
For another test, the system named is mammalian neuraminidase. The following applies: cultures of human macrophagic cells; cited from earlier work.
Test [4] deals with Swiss-Webster (SW) mice. Description: Hot-water-immersion tail-flick antinociception assays with neuraminidase inhibitors (temperature not given). The format is in vivo.
For test [5], the system named is Swiss-Webster (SW) mice. The test is classed as in vivo.
The subject of test [6] is Swiss-Webster (SW) mice. The test is classed as in vivo. The source holds these as a separate data set.
The test system of the next test is mice. The following applies: cited from earlier work.

Consider `O=C1CC[C@@]2(O)[C@H]3Cc4ccc(O)c5c4[C@@]2(CCN3CC2CC2)[C@H]1O5` [naltrexone], for which, in the test on Swiss-Webster (SW) mice [1], the “effect on baseline tail-flick latency” value was “did not alter the baseline tail-flick latency”. Moreover, the “effect on low-dose κ-opioid-induced hyperalgesia, compared with CTX-B cotreatment” value is listed as “similar” in the test on Swiss-Webster (SW) mice [2] and “comparable; also recorded: selectively blocked” in the test on Swiss-Webster (SW) mice [2] (listed as NTX). Also, the “block of low-dose morphine hyperalgesia and unmasking of analgesia, compared with CTXB cotreatment” value with Swiss-Webster (SW) mice [2] (1 μg/kg morphine plus 1 pg/kg (ultralow-dose) naltrexone) was “similar”.
For `Oc1ccc2c3c1O[C@H]1[C@@H](O)CC[C@@]4(O)[C@@H](C2)N(CC2CCC2)CC[C@]314` [nalbuphine], the “effect on pain within 1 h after injection” value in test [3] (nalbuphine 5 mg i.v.) is “hyperalgesia”.
For the compound `O=S(=O)([O-])[O-].[Mg+2]` [MgSO4], in the test on mammalian neuraminidase, the “effect on mammalian neuraminidase activity” value was “potent inhibitory effects on mammalian neuraminidase activity”.
Take `CN1CC[C@]23c4c5ccc(O)c4O[C@H]2[C@@H](O)C=C[C@H]3[C@H]1C5` [morphine]: in the test with Swiss-Webster (SW) mice [4] (morphine-only group, 5 days (FIG. 9)), the “response after chronic morphine only” value is reported as “marked hyperalgesia”. In addition, the “effect on tail-flick latency, opioid alone” value in the test with Swiss-Webster (SW) mice [2] (0.1 μg/kg morphine s.c. alone, control groups) is “marked hyperalgesia; also recorded: characteristic hyperalgesia”. For the same compound, in the test on Swiss-Webster (SW) mice [2] (1 μg/kg morphine s.c. alone, 52° C., male mice), the “duration of decreases in tail-flick latencies (hyperalgesia) after drug injection” value was in the range of 4 to 5 h. The “time after opioid injection to hyperalgesia” value with Swiss-Webster (SW) mice [2] (1 mg/kg morphine s.c. alone, control group of female mice) is not above 2 h. Further, in the test on Swiss-Webster (SW) mice [2] (ca. 1 μg/kg morphine s.c. alone, 52° C.), the “decreases in tail-flick latencies” value is 1 to 2 s. Also, in the test on Swiss-Webster (SW) mice [5] (3 mg/kg morphine alone, 55° C.), the “time course of antinociceptive effect, morphine alone” value is “sharply decreased after the first-hour peak”. Moreover, the “analgesic effects after chronic morphine alone (tolerance)” value in the test with Swiss-Webster (SW) mice [5] (daily 3 mg/kg morphine alone, 5 days) was “sharply decreased by 5 days”.
`O=S(=O)([O-])[O-].[Na+].[Na+]` [Na2SO4]: in the test with mammalian neuraminidase, the “effect on mammalian neuraminidase activity” value is on record as “potent inhibitory effects on mammalian neuraminidase activity”. Moreover, in the test on Swiss-Webster (SW) mice [4] (3 μg/kg morphine plus 10 mg/kg Na2SO4), the “results of antinociception assays compared with oseltamivir” value was “surprisingly similar”. Moreover, the development of tolerance entry with Swiss-Webster (SW) mice [4] (10 mg/kg Na2SO4 plus 3 mg/kg morphine, daily injections for 5 days) is “prevented development of tolerance during daily injections for 5 days”. For the same compound, the “effect on morphine analgesia” value with Swiss-Webster (SW) mice [4] (chronic 10 mg/kg Na2SO4 plus 3 mg/kg morphine) is recorded as “enhanced analgesia”. Besides, the NLX-precipitated withdrawal hyperalgesia entry with Swiss-Webster (SW) mice [6] (mouse, in vivo) is listed as “prevented NLX-precipitated withdrawal hyperalgesia”.
Take `C=CCN1CC[C@]23c4c5ccc(O)c4O[C@H]2C(=O)CC[C@@]3(O)[C@H]1C5` [naloxone]: the “effect on baseline tail-flick latency” value in the test on Swiss-Webster (SW) mice [1] is reported as “did not alter the baseline tail-flick latency”. For the same compound, the “effect on nalbuphine-induced hyperalgesia” value in test [3] (cotreatment with 0.5 mg naloxone) is recorded as “blocked”. For the same compound, the “duration of NLX-evoked hyperalgesic response” value in the test with Swiss-Webster (SW) mice [6] (chronic morphine (e.g., 10 mg/kg for 5-6 days), withdrawal, 10 μg/kg NLX) is recorded as “more than 5 h”.
In the case of dynorphin, the “effect on tail-flick latency” value with mice (dynorphin 0.5 μg/kg s.c., tested at 90 min post-injection) is reported as “thermal hyperalgesia”; in the test with mice (dynorphin 50 μg/kg) it was “analgesia”.
Regarding `Oc1ccc2c3c1O[C@H]1c4[nH]c5c(c4C[C@@]4(O)[C@@H](C2)N(CC2CC2)CC[C@]314)C[C@@]1(O)[C@H]2Cc3ccc(O)c4c3[C@@]1(CCN2CC1CC1)[C@H]5O4` [nor-binaltorphimine], the “effect on low-dose κ-opioid-induced hyperalgesia, compared with CTX-B cotreatment” value with Swiss-Webster (SW) mice [2] is given as “comparable; also recorded: selectively blocked; also recorded: similar”.
For the compound `CCOC(=O)C1=C[C@@H](OC(CC)CC)[C@H](NC(C)=O)[C@@H](N)C1` [oseltamivir], the “time to development of morphine tolerance after withdrawal of oseltamivir” value with Swiss-Webster (SW) mice [4] (FIG. 10) is not above 1 days. In addition, the “development of opioid tolerance” value with Swiss-Webster (SW) mice [4] (chronic cotreatment with morphine plus oseltamivir (FIGS. 8 and 9)) is recorded as “attenuates development of opioid tolerance”; in the test on Swiss-Webster (SW) mice [4] (chronic oseltamivir plus morphine for 3 days (FIG. 8)), “prevents development of opioid tolerance”. Moreover, in the test with Swiss-Webster (SW) mice [4] (cotreatment with oseltamivir, male mice (FIG. 7)), the “effect on analgesic potency of higher doses of morphine” value is on record as “markedly enhances the analgesic potency”. Also, the “effect on low-dose morphine-induced hyperalgesia” value with Swiss-Webster (SW) mice [4] (morphine plus oseltamivir s.c., male mice (FIG. 6)) was “selectively blocks; also recorded: blocks low-dose, morphine-induced hyperalgesia”. In addition, the “effect of adding oseltamivir to chronic morphine-tolerant mice” value in the test with Swiss-Webster (SW) mice [4] (oseltamivir added for 1 day (FIG. 10)) was “restores prominent analgesia”. Further, the “morphine analgesia after chronic cotreatment” value in the test with Swiss-Webster (SW) mice [4] (oseltamivir plus morphine, 5 days (FIG. 9)) is listed as “still show prominent morphine (Mor) analgesia”. For the same compound, the NLX-precipitated withdrawal hyperalgesia result in the test on Swiss-Webster (SW) mice [6] (chronic cotreatment with morphine plus oseltamivir) was “prevented development of NLX-precipitated withdrawal hyperalgesia”.

(Values after US20100015147A1 (priority 2001, published 2010).)
